# Results reported in article PMC10810823, “Generation of a new therapeutic D-peptide that induces the differentiation of acute myeloid leukemia cells through A TLR-2 signaling pathway” (Cell Death Discovery, 2024).
# Where a SMILES comes first, the peptide text is derived from it. Where no end group is shown, it is not given here. [ ]: non-standard residue; d: D form.
# Assays:
# NOD/SCID mice = experiment: In vivo toxicity at 10-fold treatment dose (H&E of major organs, glucose and serum biochemical indices); conditions: 200 mg/kg i.v. every 3 days, 30 days, n = 3 per group
# Procedure: Based on the above in vitro findings, we next tested whether the peptides could suppress the growth of leukemia cells in vivo. To this end, NOD/SCID mice were subcutaneously inoculated with THP-1 cells. L-pep-P6, D-pep-P6, or pep-NC was injected intravenously into NOD/SCID mice (n = 3 per group) at a 10-fold treatment dose (200 mg/kg) every 3 days. We first examined the toxicity of these peptides in vivo. After 30 days of indicated treatments, the major organs, including the heart, kidney, spleen, liver, and lung, were isolated and stained with hematoxylin and eosin. No histological changes in major organs were detectable in the peptide-treated groups when compared with the untreated group (Fig. 4A). We further examined the glucose and serum biochemical indices, such as aspartate aminotransferase (AST), alanine aminotransferase (ALT), creatinine (Cr), and urea.
# The mice were categorized into three groups, including the pep-NC group, the D-pep-P6 group, and the […] group (n = 3 per group). These groups received a dosage that was ten times the standard therapeutic amount via the tail vein. Major organs of mice from different treated groups were fixed in 4% formaldehyde for hematoxylin and eosin staining. Following a hydration process, the tissues were stained with Harris hematoxylin for 15 min. […]
# [1] = In vivo pharmacokinetic assay; design: species or system NOD/SCID mice
# Procedure: In addition, we administered a therapeutic dose of D-pep-P6 (20 mg/kg) via intravenous tail injection into NOD/SCID mice (n = 3 per group). Serum samples were collected at various time points, and the content of D-pep-P6 was quantitatively analyzed using high-performance liquid chromatography coupled with mass spectrometry (Supplemental Fig. 3).
# Female NOD/SCID mice weighing between 18 and 20 g were utilized for the pharmacokinetic analysis of D-pep-p6. In the plasma, D-pep-p6 pharmacokinetic profile analysis, groups of mice (n = 3) were administered a single intravenous dose of 20 mg/kg. Blood samples were collected at specified time intervals and subsequently centrifuged at 8000 rpm for 10 min. The resulting plasma was mixed with CH4O in a 3:1 (v/v) ratio and centrifuged once more at 13,000 rpm for 10 min. The supernatant was then analyzed using RP-HPLC to determine parameters such as the maximum plasma concentration (Cmax) and elimination half-life (T1/2).
# THP-1 cells [2] = experiment: Apoptosis by Annexin V/propidium iodide staining, flow cytometry; type: cell-based, human; conditions: THP-1, 48 h; Fig. 1C
# Procedure: (§1) The THP-1, U937, and HL-60 cell lines were purchased from ATCC. THP-1, HL-60, and U937 cells were cultured in RPMI 1640 containing 2 mM glutamine, 100 IU/ml penicillin and 100 μg/ml streptomycin (Sigma), supplemented with 10% fetal bovine serum (FBS; Gibco). Cell cultures were maintained at 37 °C, 5% CO2 at 0.8–1 × 10^5 cells/ml. For the initiation of differentiation in THP-1, HL-60, U937, and primary AML cells, the cells were seeded into 12-well tissue culture plates at 1 × 10^6 cells/well. Subsequently, these cells were exposed to the indicated clonal phages (10^10 virions per well), peptides (10 μg/ml), or 100 nM PMA (Sigma-Aldrich, MO, USA).
# APC Annexin V Apoptosis Detection Kit with PI (BioLegend, Catalog # 640932, CA, USA) was employed to evaluate cell apoptosis. Target cells were washed twice with cold BioLegend’s Cell Staining Buffer, then suspended in Annexin V Binding Buffer at a concentration of 0.25–1.0 × 10^7 cells/ml. To 100 µL of the cell suspension, 5 µL of APC Annexin V and 10 µL of Propidium Iodide Solution (PI) were added. The suspension was gently vortexed and incubated in the dark for 15 minutes at room temperature. Finally, 400 µL of Annexin V Binding Buffer was added to each tube, and the samples were analyzed by flow cytometry. […]
# THP-1 cells [3] = experiment: Proliferation by Ki-67 staining, FACS; type: cell-based, human; conditions: THP-1, 48 h; Fig. 1D
# Procedure: as §1
# To assess proliferation, Ki-67 was detected using FACS after 48 h of cell culture exposed to a specific stimulation. Following the manual instruction, the target cells were incubated with 70% cold ethanol at −20 °C for 1 h, washed, and then suspended at a concentration of 1.0 × 10^7/ml in BioLegend Cell Staining Buffer. Subsequently, 100 µl cell suspension was incubated with the 5 µl Ki-67 antibody for flow cytometric analysis.
# THP-1 cells [4] = experiment: Differentiation: cell surface CD11b and CD14 by FACS; type: cell-based, human; conditions: THP-1, 48 h; ***P < 0.001; 6 independent experiments
# Procedure: as §1
# Differentiation status was also assessed by morphological observation of the cells and by FACS detection of cell surface CD11b and CD14 expression (Table 3). FcR Blocking Reagent (Miltenyi Biotec) was employed to prevent undesired antibody binding and enhance the staining specificity of cell surface antigens.
# THP-1 cells [5] = experiment: Cell differentiation induction: ratio of adherent cells; type: cell-based, human; conditions: clonal phages P1, P2, P6, P9 enriched in Round 3; Fig. 1G
# Procedure: as §1
# Cells were cultured according to the method described above. As the adherent cell numbers reached a peak at 48 h and declined after 72 h, we chose 48 h as the incubation time in the following experiments. Following the incubation period, cells within each were washed 3 times with PBS. Cells were considered to be adherent if they resisted the vigorous shake of the culture flask and washing by pipetting with a normal growth medium. To assess the ratio of adherent cells, an equal amount of FITC beads (BioLegend, Catalog # 424601, CA, USA) was separately introduced to both suspended and adherent cells. Subsequently, the proportions of FITC beads were measured using FACS. […]
molecule,measurement,setting,value
CC(C)C[C@@H](NC(=O)[C@@H](CCC(=O)O)NC(=O)[C@H](NC(=O)CNC(=O)[C@@H](Cc1ccccc1)NC(=O)CNC(=O)[C@H]1CCCN1C(=O)[C@@H](Cc1ccccc1)NC(=O)[C@H](N)CCC(N)=O)[C@H](C)O)C(=O)N1CCC[C@@H]1C(=O)N[C@H](CO)C(=O)N[C@H](CO)C(=O)O [D-pep-P6] (H-[dQ][dF][dP]G[dF]G[dT][dE][dL][dP][dS][dS]-OH),signs of toxicity / overall toxicity,NOD/SCID mice,low toxicity
same,resistance to proteolysis / stability in vivo,"[1]; NOD/SCID mice, i.v. 20 mg/kg, from concentration-time curve",remarkable resistance to proteolysis
same,Cmax,"[1]; mouse, iv, female NOD/SCID mice, single i.v. 20 mg/kg, n = 3 per time point, plasma (serum), RP-HPLC (HPLC coupled with mass spectrometry), read-out: maximum concentration (Cmax)",13200 ng/mL
"CCCCCCCCCCCCCC(=O)O[C@@H]1[C@@H](C)[C@@]2(O)[C@@H](C=C(CO)C[C@]3(O)C(=O)C(C)=C[C@@H]23)[C@@H]2C(C)(C)[C@]12OC(C)=O [PMA, phorbol 12-myristate 13-acetate]",proportions of apoptotic and necrotic cells compared to the unstimulated group,THP-1 cells [2],slight increase
same,proliferation (Ki-67 expression) compared to negative control,THP-1 cells [3],significant reduction in proliferation
QFPGFGTELPSS [L-pep-P6],signs of toxicity / overall toxicity,NOD/SCID mice,low toxicity
"QFPGFGTELPSS [P6, monoclonal phage from Ph.D.-12 library displaying …]",MFI of CD11b expression induced by P6 relative to that induced by PMA,THP-1 cells [4],1.5 fold
same,MFI of CD14 expression induced by P6 relative to that induced by PMA,THP-1 cells [4],1.3 fold
same,capability for inducing THP-1 cell differentiation (percentage of adherent cells) among clonal phages,THP-1 cells [5],greatest capability for inducing THP-1 cell differentiation
